Several values for one entry are separate records, joined by “and”; a condition that tells them apart may be missing. Equal entries are not always repeated. Entries after “also recorded” stand apart in the source; their conditions may differ.
Experiments:
[1] = test system: rat neonatal cardiomyocytes; test: cyclic AMP accumulation in rat neonatal cardiomyocytes (EIA); details: for attenuation of isoproterenol-stimulated cAMP accumulation: 1 μM isoproterenol, 200 nM antagonist; for β2AR response/AC activity (procaterol, forskolin): FIG. 11
Procedure: Ventricular cardiomyocytes were isolated from neonatal rat hearts as described before and seeded to fibronectin coated plates in DMEM21 and Coon's F12 with 10% FBS. […] Myocytes were used within 24 to 72 hr after isolation.
For pretreatment, cells were washed once in serum-free media (SFM) supplemented with 0.1% bovine serum albumin (BSA) and incubated with TGF-β1 in the presence or absence of inhibitors in the same media. Control cells were treated with the appropriate vehicles.
HBSMC or rat neonatal cardiomyocytes were subcultured in 96-well or 24-well plates for 24 hr to 48 hr, then treated with TGFβ1 (1-2ng/ml), Activin A (10-50 ng/ml) and other drugs in 1% serum-containing or serum-free media. After 24 hr incubation, phosphodiesterase inhibitor, IBMX (200 uM) was added to fresh media for 10-15 min before exposure to either 10 uM procaterol, 1 uM isoproterenol, or 10-50 uM forskolin for 10 min to stimulate cAMP production. The stimulation medium was removed and cells were lysed in 0.1M HCl. cAMP levels were measured using Direct cAMP EIA kit from Assay Designs, Inc. following manufacture's instruction.
Subsequent to treatment with TGF-β1 (1-2 ng/ml), cardiomyocytes (˜1×10^5 cells/well in 24-well plates) were incubated with phosphodiesterase inhibitor, IBMX (200 μM) for 30 min in SFM. Cells were then exposed to either procaterol (10 μM), forskolin (10-50 μM), or isoproterenol (Iso, 1 μM) for 10 min to allow for accumulation of cAMP. […] The incubations were terminated by removal of the medium. Cells in each well were lysed in 150 μl of 0.1 M HCl at room temperature (RT) for 30 min. Intracellular cAMP contents were measured using the Direct cAMP EIA kit following manufacture's instruction, and the cAMP levels were calculated in pmol/ml.

[2] = test system: human bronchial smooth muscle cells (hBSMC); test: cyclic AMP accumulation in hBSMC (EIA); assay type: cell-based
Procedure: Human bronchial smooth muscle cells (hBSMC) were purchased from Clonetics (BioWhittaker, Inc., Walkersville, Md.), and maintained in SmGM-2 containing 5% fetal bovine serum (Clonetics) at 37° C./5% CO2. All experiments were performed on cells at passages from 6 to 8. For pretreatment, cells were incubated in 1% serum-containing media or serum-free media in the presence or absence of TGFβ1, Activin A and other drugs. Control cells were treated with the appropriate vehicles.

[3] = test system: Smad2, Smad3; test: Western blot of phospho-Smad2 and Smad3 in hBSMC; assay type: cell-based, human
Procedure: (§1) After incubation with TGFβ1 and other drugs, cells were washed once with 1×PBS and lysed in 0.2 ml/plate cold RIPA buffer (phosphate buffered saline, pH 7.4, 1% NP-40, 0.5% sodium deoxycholate, 0.1% sodium dodecylsulfate, 1 mM sodium orthovanadate, 1 mM NaF, 1 mM β-glycerolphosphate, 1 uM okadaic acid, 10 ng/ml aprotinin, 10 ng/ml leupeptin, 1 mM phenymethylsulfonyl fluoride). Samples were clarified by centrifugation (4° C., 10 min, 15,000×g), and protein concentration was determined by BCA method (PIRCE). Lysates with equal amounts of total cell protein (15-20 ug) were separated on 10% SDS-NuPAGE (Invitrogen) and then transferred to nitrocellulose membrane. The membrane was blocked in 3% nonfat dry milk/TBST (10 mM Tris-HCl pH 7.5, 150 mM NaCl, 0.1% Tween 20) for 1 hr, and probed with anti-Smad2/3 mouse monoclonal antibody [Transduction Laboratories (S66220); 1:500 dilution in 3% milk/TBST], or anti-phospho-Smad2 (Ser465/467) rabbit antiserum [Cell Signaling (3101S); 1:500 dilution in 3% BSA/TBST] at 4° C. overnight. Donkey anti-mouse HRP [Santa Cruz (SC-2314); 1:2000 dilution] or donkey anti-rabbit HRP [Santa Cruz (SC-23130; 1:2000 dilution] were used as secondary antibody. Immunoreactivity was detected with chemiluminescence reagent (Santa Cruz) and visualized by exposing to x-ray film (Kodak).

[4] = test system: TGF-β mediated fibrosis; test: TGF-β mediated fibrosis in in vitro and in vivo models; details: several in vitro and in vivo models
[5] = test system: panel of related protein kinases; test: panel of related protein kinases; details: relative to TGFβ-RI kinase
[6] = molecular target: TGFβ-RII receptor (Homo sapiens, UniProt P37173); test: specificity against TGFβ-RII receptor; details: relative to TGFβ-RI kinase
TGFβ-RII receptor, sequence (P37173 23-567): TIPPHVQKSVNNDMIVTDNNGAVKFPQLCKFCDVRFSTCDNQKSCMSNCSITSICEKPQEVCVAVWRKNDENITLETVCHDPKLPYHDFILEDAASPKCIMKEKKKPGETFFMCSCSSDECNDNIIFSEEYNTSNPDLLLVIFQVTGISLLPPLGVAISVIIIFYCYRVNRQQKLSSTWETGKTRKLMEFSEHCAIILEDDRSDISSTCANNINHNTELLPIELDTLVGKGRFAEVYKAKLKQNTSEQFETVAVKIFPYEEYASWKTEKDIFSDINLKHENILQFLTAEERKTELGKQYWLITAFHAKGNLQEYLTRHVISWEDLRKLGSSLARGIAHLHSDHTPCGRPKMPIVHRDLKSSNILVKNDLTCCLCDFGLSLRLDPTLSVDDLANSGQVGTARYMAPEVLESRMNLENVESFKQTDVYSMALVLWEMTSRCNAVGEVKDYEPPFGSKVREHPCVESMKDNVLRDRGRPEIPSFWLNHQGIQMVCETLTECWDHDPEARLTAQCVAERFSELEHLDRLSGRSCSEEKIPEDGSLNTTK

[7] = test system: rat neonatal cardiomyocytes; test: real-time RT-PCR of mRNA levels in cardiomyocytes; details: for β2-AR mRNA levels in cardiomyocytes: 24 hr pretreatment for TGF-β1
Text: Total RNA was extracted from cells using Qiagen's RNAeasy kit (Valencia, Calif.), and analyzed by quantitative real time RT-PCR [Gibson UEM, Heid C A and Williams P M. Genome Res. 6, 995-1001, 1996] using an ABI Prism™ 7700 Sequence Detection System (PE Applied Biosystems, Foster City, Calif.). This system is based on the ability of the 5′nuclease activity of Taq polymerase to cleave a nonextendable dual-labeled fluorogenic hybridization probe during the extension phase of PCR. The probe is labeled with reporter fluorescent dye at the 5′ end and a quencher fluorescent dye (6-carboxy-tetramethyl-rhodamine) at the 3′ end. When the probe is intact, reporter emission is quenched by the physical proximity of the reporter and quencher fluorescent dyes. However, during the extension phase of PCR, the nucleolytic activity of the DNA polymerase cleaves the hybridization probe and releases the reporter dye from the probe with a concomitant increase in reporter fluorescence.
Sequence specific primers and probes were designed using Primer Express software (PE Applied Biosystems, Foster City, Calif.). […] Primers were used at a concentration of 200 nM and probes at 100 nM in each reaction. Multiscribe reverse transcriptase and AmpliTaq Gold polymerase (PE Applied Biosystems, Foster City Calif.) were used in all RT-PCR reactions and PCR reactions. RT-PCR parameters were as follows: 48° C. for 30 min (reverse transcription), 95° C. for 10 min (AmpliTaq Gold activation) and 40 cycles of 95° C. for 15 sec, 60° C. for 1 min. Relative quantitation of β1-AR, β2-AR, and 18S mRNA were calculated using the comparative threshold cycle number for each sample fitted to a five point standard curve (ABI Prism 7700 User Bulletin #2, PE Applied Biosystems, Foster City Calif.). Expression levels were normalized to 18S rRNA.

[8] = test system: Smad2; test: Western blot of Smad2 phosphorylation in cardiomyocytes
Procedure: as §1
The binding of primary antibodies was followed by incubation for 1 hour at RT with the secondary horseradish peroxidase (HRP) conjugated goat anti-mouse or goat anti-rabbit antibody (Santa Cruz Biotechnology). Immunoreactivity was detected with chemiluminescence reagents and visualized by exposing to x-ray film (Kodak).

[9] = test system: Smad2/3 and Smad4; test: immunofluorescence staining of Smad nuclear translocation in cardiomyocytes
Procedure: The nuclear translocation of Smad proteins in response to TGF-β1 was determined by immunofluorescence staining with monoclonal anti-Smad2/3 antibody (BD Transduction Labarotories) and anti-Smad4 antibody (sc-7966) (Santa Cruz Biotechnology). Briefly, myocytes cultured on Lab-Tek chamber slides (Nalge Nunc International, Naperville, Ill.) coated with fibronectin and gelatin were fixed with 4% paraformaldehyde in PBS for 5 min, then penetrated with 0.1% saponin/1% normal goat serum (NGS) in PBS for 15 min. After blocking nonspecific binding with 5% NGS/0.05% saponin in PBS for 15 min, the slides were incubated with primary antibody in 1% NGS in PBS at 4° C. overnight. After another washing and blocking, slides were incubated with a biotinylated anti-mouse antibody for 30 min, followed by fluorescein isothiocyanate (FITC)-conjugated-avidin (Vector, Burlingame, Calif.) for 30 min. Slides were dried and mounted in Vectashield (Vector). Samples were analyzed by fluorescence microscopy.

[10] = test system: β2AR mRNA; test: real-time quantitative PCR of β2AR mRNA in hBSMC; assay type: cell-based, human; details: TGFβ1 exposure
Text: Expression levels were normalized to 18S rRNA.

[11] = test system: β2-adrenergic receptors on cell surface; test: radioligand binding with [3H]CGP-12177 on intact hBSMC; assay type: cell-based, human; details: TGFβ1 exposure
Procedure: The number of β2-adrenergic receptors on cell surface was determined by radioligand binding using hydrophilic, membrane-impermeable β-adrenergic antagonist [^3H]CGP-12177. Intact hBSMCs in 10 cm dish were preincubated with 5 nM [^3H]-CGP 12177 in the presence or absence of 20 uM propranolol (to define the amount of nonspecific binding) in SmBM for 1 hour at 37° C. with very gentle shaking. Cells were washed 3 times with ice-cold 1×PBS containing 0.1% Tween-20 (binding buffer) and 3 more times with ice-cold 1×PBS. 400 μl of RIPA buffer containing protease inhibitors was added to the plates and cells were scraped off the plates. Cell lysates were collected and protein concentrations were determined by BCA method (PIERCE). The radioligand bound to the whole cell was quantified by liquid scintillation counter and normalized to the protein concentration.

[12] = test system: β2-AR receptor binding sites; test: radioligand binding in cardiomyocytes; assay type: cell-based, rat
Procedure: The radioligand binding assay was performed as described in Example 1. To define the nonspecific binding to β2-AR, 50 nM CGP-20712A were used.
Membranes were then prepared and binding of 100 pm [^125]-CYP was measured for 2 hours at 23° C. using 8 μg membrane protein, and expressed as fmol/mg protein. Binding in the presence of 100 nM CGP-20712A was defined as binding to β2-AR, while binding in the presence of 100 μM propranolol was defined as non-specific binding. Subtraction of β2-AR binding from total binding was defined as β1-AR binding. The results are shown in FIG. 25 (p<0.05 vs. vehicle).

## Cn1cc(C(F)(F)F)nc1-c1ccc(OCC(O)CNCCOc2ccc(O)c(C(N)=O)c2)cc1 (centres unmarked) [CGP-20712A, reference compound]
[1]
  attenuation of isoproterenol-stimulated cAMP accumulation: ~75%

## Cc1ccc(OCC(O)C(C)NC(C)C)c2c1CCC2 (centres unmarked) [ICI 118, 551, reference compound]
[1]
  attenuation of isoproterenol-stimulated cAMP accumulation: ~25%

## Fc1ccc(Cl)cc1-c1nc(Nc2ccncc2)c2nccnc2n1 [Compound No. 79]
[2]; FIG. 4
  effect on TGFβ1-induced loss of adrenergic responsiveness in hBSMC: prevents
[3]; FIG. 13
  effect on TGFβ1-induced Smad2 phosphorylation and Smad3 down-regulation in hBSMC: blocks
[4]
  effect on TGF-β mediated fibrosis: able to block
[5]
  specificity over members of a panel of related protein kinases: at least 20 fold
[6]
  specificity against TGFβ-RII receptor: > 100 fold
[7]; 5 ng/ml TGF-β1, 24 hr, dose-dependent
  effect on TGF-β1 induced down-regulation of β2-AR mRNA: reversed
[7]; FIG. 10
  effect on activin-induced down-regulation of β2AR mRNA: prevented
[7]; dose-dependent
  effect on decreased AC5 and AC6 mRNA levels in TGF-β1 treated cardiomyocytes: inhibited
[7]; dose-dependent, within 24 hr
  effect on TGF-β1 induced down-regulation of Smad3 mRNA: blocked
[7]; high doses (400-1000 nM)
  mRNA levels of β2-AR in TGFβ1 treated cells: higher than that in control cells
[8]; pre-incubation, Compound No. 79 at 400 nM, 1 hr and 24 hr
  effect on TGF-β1 induced Smad2 phosphorylation/activation: significantly blocked
[8]; resting cardiomyocytes
  basal phosphorylation of Smad2: blocked
[1]; Example 1, FIG. 9
  effect on TGFβ1-induced loss of β2AR response and AC activity: prevents
[1]; higher concentration
  basal cAMP levels in cardiomyocytes: increased
[1]; pre-incubation, Compound No. 79 200 nM
  isoproterenol or forskolin induced cAMP accumulation in TGF-β1 treated cardiomyocytes: preserved
[9]; 400 nM
  effect on TGF-β1 induced Smad2/3 and Smad4 translocation into the nucleus: completely abolished

## N#CC(=C(/N)Sc1ccccc1N)/C(C#N)=C(\N)Sc1ccccc1N [U0126, reference compound]
[1]; Compound No. 79 200 nM, p38 inhibitor 0.5 μM, U-0126 5 μM, JNK inhibitor I 5 μM, TGF-β1 1 ng/ml
  β2-AR mediated (procaterol stimulated) cAMP accumulation after 24 hr TGF-β1 exposure, compared to vehicle: No significant effects; also recorded: did not affect

## CCC(NC(C)C)C(O)c1ccc(O)c2[nH]c(=O)ccc12 (centres unmarked) [procaterol, reference compound]
[1]; 10 μM procaterol
  cAMP accumulation by agonist: substantially increased

## TGF-β1: Human recombinant transforming growth factor-β1 from R&D System
[2]; more profound at 24 hr or later
  time course of loss of β2AR response (procaterol-induced cAMP) in hBSMC: after 12 hr
[2]; to a lesser extent
  time course of effect on AC activity (forskolin-induced cAMP) in hBSMC: only observed 24 hr later
[3]
  Smad2 phosphorylation in hBSMC: induces
  Smad3 expression in hBSMC: down-regulated
[10]
  β2AR mRNA in hBSMC: significantly reduces
[11]
  βAR binding sites on hBSMC: reduces
[12]
  β2-AR receptor binding sites in cardiomyocytes: trend to decrease
[7]
  Smad7 mRNA in cardiomyocytes: up-regulated
  β1-AR mRNA levels in cardiomyocytes: did not significantly alter
  β2-AR mRNA levels in cardiomyocytes: decreased β2-AR mRNA levels dramatically
[7]; after treatment
  earliest time of suppression of β2-AR mRNA: 1 h
[7]; message or protein levels
  expression of βARK1, Gsα, Giα-1, Giα-3: did not alter
[7]; time-dependent
  mRNA levels of AC5 and AC6: significant reduction
[7]; within 24 hr
  Smad3 mRNA in cardiomyocytes: down-regulated
[8]; maintained for 24 hr
  time of peak serine phosphorylation of Smad2: 1 h
[1]; TGF-β1 1 ng/ml pre-treatment 24 hr, 10 μM procaterol, maximal effect
  reduction in procaterol-stimulated cAMP accumulation: 59±5.2% and ~60%
[1]; TGF-β1 exposure, 25 μM forskolin
  cAMP accumulation stimulated by forskolin: decreased
[1]; TGF-β1 pretreatment 24 hr
  decrease of cAMP accumulation when β2-ARs selectively stimulated by isoproterenol in the presence of CGP-20712A: ~65%
  reduction in β1-AR mediated cAMP accumulation (isoproterenol in the presence of ICI 118, 551): 16.5±3.1%
[9]; stimulation for 1 hr
  Smad2/3 and Smad4 fluorescence staining in the nucleus: dramatically increased

B1: IL-1β: IL-1β, cytokine applied to rat cardiomyocytes (protein, UniProt Q63264 117-268, looked up)
Interleukin-1 beta: VPIRQLHCRLRDEQQKCLVLSDPCELKALHLNGQNISQQVVFSMSFVQGETSNDKIPVALGLKGLNLYLSCVMKDGTPTLQLESVDPKQYPKKKMEKRFVFNKIEVKTKVEFESAQFPNWYISTSQAEHRPVFLGNSNGRDIVDFTMEPVSS
[1]
  β2AR response/AC activity (procaterol, forskolin): induces loss

B2: activin A: Activin A obtained from R&D System (protein, UniProt P08476 311-426, looked up)
Inhibin beta A chain: GLECDGKVNICCKKQFFVSFKDIGWNDWIIAPSGYHANYCEGECPSHIAGTSGSSLSFHSTVINHYRMRGHSPFANLKSCCVPTKLRPMSMLYYDDGQNIIKKDIQNMIVEECGCS
[2]; higher concentration
  βAR response and AC activity in hBSMC: causes loss of βAR response as well as reduced AC activity
[7]
  β2-AR mRNA levels in cardiomyocytes: down-regulated
[1]
  β2AR response/AC activity (procaterol, forskolin): induces loss

Reference: patent US20040127575A1, “Method for counteracting a pathologic change in the beta-adrenergic pathway” (priority 2002, published 2004)
